Measurements from patent publication US11344512B2, “Titration of tapentadol” (Grünenthal GmbH, priority 2007, dated 2022).

Assays:
[1] = test system: patients with osteoarthritis of hip/knee or chronic low back pain; test: Clinical studies C-1/C-2 (without titration) and E-1/E-2 (forced titration): occurrence of somnolence; assay type: in vivo, human (patients)
Protocol: A randomized, double-blind, multiple dose, parallel-group study assessing the efficacy and safety of 3 dosages of tapentadol prolonged release (bid) (25 mg, 50 mg and 100 mg) compared to oxycodone prolonged release (bid) 20 mg and placebo over 28 days in patients with hip and/or knee-joint osteoarthritis. Subjects: 40-75 years old, male and female patients. 375 patients, randomized to placebo, standard opioid, tapentadol. Treatment Regimen: Day 1 only evening dose Day 2—Day 28 bid Day 29 only morning dose.
A randomized, double-blind, multiple dose, parallel-group study assessing the efficacy and safety of tapentadol prolonged release 25, 50 and 100 mg compared to placebo and tramadol prolonged release 100 mg in patients with chronic low back pain.
Male and female patients 18-75 years old with a history of low back pain of at least 6 months, requiring regular treatment on at least 60 out of last 90 days.
430 patients, randomized to placebo, tramadol 100 mg prolonged release, 3 dosages tapentadol.
A randomized, double-blind, parallel-group study assessing the efficacy and safety of two titration regimen of tapentadol prolonged release (25 mg, 50 mg, 100 mg and 100 mg, 150 mg, 200 mg of free base of tapentadol) given orally twice daily (bid) compared to placebo and oxycodone controlled release (10 mg, 10 mg, 20 mg) in patients with chronic pain due to osteoarthritis of the knee. Subjects: Male and female patients≥40 years old with a diagnosis of osteoarthritis of the knee Treatment Regimen: Patients started with the lowest dose of the titration phase for the first 3 days and up-titrated to the intermediate dose on day 4. Subjects were maintained at the intermediate dose for the next 11 days. After these 11 days patients started the maintenance phase and received the highest dose of each regimen for the remaining 14 days. Subjects who were unable to tolerate the highest dose after having received that dose for at least 3 days were allowed to down titrate to the intermediate dose. Down titration was permitted only once during the fixed-dose maintenance phase.
A randomized, double-blind, parallel-group study that compares the efficacy and safety of two titration regimens of tapentadol prolonged release (25 mg-50 mg-100 mg and 100 mg-150 mg-200 mg) given orally twice daily (bid) and tramadol prolonged release (100 mg-150 mg-200 mg) p.o. bid to placebo in patients with moderate to severe chronic pain due to chronic low back pain. Subjects: Male and female patients≥18 years old with a diagnosis of low back pain of at least 3 months. Treatment Regimen:
Patients took the first dose and continued on the lowest dose in their treatment regimen for 3 days (i.e. 6 doses). After the sixth dose, patients titrated to the intermediate dose in their treatment regimen and continued on this intermediate dose for 11 days (i.e. 22 doses). Up-titration was mandatory. Patients who were unable to tolerate study medication were removed from the study. After the twenty second dose, patients titrated to the final dose in their treatment regimen and continued on this final dose for 14 days.
Concentration measurements were taken from comparative examples C-1 and C-2, both without dose titration. Examples E-1 and E-2 in the same indications were used to get PK/PD information under dose titration. In all studies adverse events were noted.

[2] = test system: patients with chronic low back pain or chronic pain from osteoarthritis of the knee or hip; test: Example E-3: opioid withdrawal after 90 days treatment (COWS and SOWS questionnaires), phase III trial; assay type: in vivo, human (patients); conditions: for patients reporting mild-to-moderate withdrawal symptoms (COWS assessment): 2 to 4 days after study medication ceased, after 90 days treatment
Protocol: The symptoms of opioid withdrawal following long-term treatment (90 days) with tapentadol immediate release (IR) compared with oxycodone IR were evaluated in a randomized, double-blind, active-control, parallel group, flexible dose, multicenter phase III trial of patients with chronic low back pain of chronic pain from osteoarthritis of the knee or hip. Patients (N=849) were randomly assigned in a 4:1 ratio to a flexible dose of tapentadol IR (50 or 100 mg/dose; maximum 600 mg/day) or oxycodone IR (10 or 15 mg/dose; maximum 90 mg/day) every 4 to 6 hours. Symptoms of withdrawal following opioid discontinuation were examined using the Clinical Opioid Withdrawal Score (COWS) and the Subjective Opioid Withdrawal Score (SOWS) questionnaires. […] The mean total SOWS score, 2 to 4 days after last study drug intake, was lower for the tapentadol IR group (6.9) than the oxycodone IR group (8.7). […] In addition, 5 or more days after last study drug intake, the mean total SOWS score was 6.3 for the tapentadol IR group and 7.0 for the oxycodone IR group (no significant difference).

adverse effects = conditions: cited from earlier work
pain = test: Preliminary clinical trials: pain treating effect (VAS) versus serum concentration of tapentadol; assay type: in vivo, human (individuals)
Protocol: In one preferred embodiment dose a is below the pharmaceutically effective pain treating dose of tapentadol. The pharmaceutically effective pain treating dose of tapentadol may vary individually and can be determined by routine experimentation for a given subject. Usually, the minimum pharmaceutically effective pain treating dose will be above 50 mg twice daily (bid). Preferably, effective pain treatment is to be regarded as at least 5% decrease in pain in an individual, more preferably at least 10%, still more preferably at least 15% and most preferably at least 20% decrease in pain in an individual, taking into account that low serum concentrations of tapentadol suffice to show an effect in individuals that are relatively sensitive and higher serum concentrations of tapentadol are needed to show an effect in persons that are relatively unsensitive.

[3] = 2 to 4 days after last study drug intake
[4] = 5 or more days after last study drug intake

## COc1ccc2c3c1O[C@H]1C(=O)CC[C@@]4(O)[C@@H](C2)N(C)CC[C@]314 [oxycodone, reference compound]
[1]; FIG. 8, oxycodone controlled release
  effect of titration regimen of example E-1 on suppression of somnolence: no comparable effect on the suppression of somnolence

## COc1ccc2c3c1O[C@H]1C(=O)CC[C@@]4(O)[C@@H](C2)N(C)CC[C@]314 [oxycodone IR, reference compound]
[2]; [3]
  mean total SOWS score: 8.7
[2]
  patients reporting mild-to-moderate withdrawal symptoms (COWS assessment): 29%
[2]; [4]
  mean total SOWS score: 7.0

## CC[C@@H](c1cccc(O)c1)[C@@H](C)CN(C)C [tapentadol IR]
[2]; [3]
  mean total SOWS score: 6.9
[2]
  patients reporting mild-to-moderate withdrawal symptoms (COWS assessment): 17%
[2]; [4]
  mean total SOWS score: 6.3

## COc1cccc(C2(O)CCCCC2CN(C)C)c1 (stereo not drawn) [tramadol]
Adverse effects
  frequency of dizziness, nausea and vomiting with slow titration: reduce the frequency
  frequency of somnolence with slow titration: not significantly reduced

## CC[C@@H](c1cccc(O)c1)[C@@H](C)CN(C)C [tapentadol, (−)-(1R,2R)-3-(3-dimethylamino-1-ethyl-2-methyl-propyl)-phenol]
pain; at serum concentration about 5 ng/ml
  visual analog scale (VAS) in a population mean: approximately −2 mm
pain; at serum concentration about 300 ng/ml
  visual analog scale (VAS) in a population mean: approximately −15 mm
[1]; FIG. 5 and 6, prolonged release
  concentration at which adverse events (somnolence) occurred, without titration (C-1, C-2) compared to dose titration (E-1, E-2): much lower concentration
[1]; studies using forced titration, total daily dose 200 mg, pooled data
  somnolence occurred in % of patients: 6%
[1]; studies using forced titration, total daily dose 400 mg, pooled data
  somnolence occurred in % of patients: 12%
[1]; studies without titration, total daily dose 172 mg, pooled data from both studies
  somnolence occurred in % of patients: 4.3%
